{
  "source": "patent US20240024291A1",
  "about": "“Uses of Dihydroorotate Dehydrogenase Inhibitors” (University of Maryland, Baltimore, priority 2022, published 2024)",
  "assay_type_in_all_cases": "cell-based, human",
  "key": {"[1]": {"test_system": "08-387 glioblastoma neurosphere line", "assay": "CellTiter-Glo in vitro proliferation assay", "settings": "for IC50: Homo sapiens", "protocol": "(§1) A Biospherix X3, hypoxic incubation system, was maintained at 37° C., 1% 02, 5% CO2, and 94% N2 (Biospherix, Ltd—Parish, NY) to conduct in vitro hypoxic experiments. Cells were plated, then incubated in normoxia overnight before transferring the culture dishes to hypoxia for the duration indicated in the main text.\n(§2) […] Cell Titer-Glo® Luminescent Cell Viability Assay (Promega, Madison, WI, USA) was performed 72 hours after treatment. Luminescence was determined using a Cytation 5 reader and Gen5 software package (BioTek, Winooski, VT, USA).\n(§3) The compound's efficacy was examined against a collection of genetically diverse patient-derived GSC lines in vitro. The IC50 profiles of compound 1 in the seven GSC lines tested were established using the CellTiter-Glo® reagent and calculated with GraphPad software."}, "[2]": {"test_system": "913 glioblastoma neurosphere line", "assay": "CellTiter-Glo in vitro proliferation assay", "protocol": "as §1, §2, §3"}, "[3]": {"test_system": "913 PIP-FUCCI reporter cells", "assay": "PIP-FUCCI in vitro cell cycle assay", "settings": "for percentage of cells in the S phase: 48 hours (DMSO 20%)", "protocol": "To monitor cell cycle progression, 913 glioblastoma neurosphere-derived cells expressing pLenti-PGK-Neo-PIP-FUCCI were first cloned. pLenti-PGK-Neo-PIP-FUCCI was from Jean Cook (Addgene plasmid #118616; n2t.net/addgene:118616; RRID:Addgene_118616) (52). Cells were then treated with either 0, 10 nM, or 100 nM compound 1 for 48 hours, stained with 1 mg/mL Hoechst for 2 hours, and visualized by direct fluorescence microscopy. A twenty-four-hour treatment with […] of the DNA replication inhibitor Aphidicolin was used as a positive control for S-phase arrest. A collection of five images per well, each set containing at least 10,000 cells, was captured for each treatment. Each treatment was performed in technical quadruplicates, and each experiment was repeated twice on different days. Images were acquired using Cytation 5 plate reader (BioTek, Winooski, VT, USA) and scored using Gen5 software. Cell cycle phases were determined by x/y plot of mVenus and mCherry intensities per nucleus and gating boundaries on the Aphidicolin control.\nIt has been reported that depletion of pyrimidine nucleotides leads to incomplete DNA replication and elicits a stress response that blocks cell cycle progression. […] The original design was developed in 2008 by Miyawaki and colleagues (51)."}},
  "data": [
    {"smiles": "CCn1c(CO)nn(-c2cc(O[C@@H](C)C(F)(F)F)c(C(=O)Nc3c(F)cccc3Cl)cc2F)c1=O", "note": "[Compound 1, N-(2-chloro-6-fluorophenyl)-4-[4-ethyl-4,5-dihydro-3-(hydroxymethyl)-5-oxo-1H-1,2,4-triazol-1-yl]-5-fluoro-2-[(1S)-2,2,2-trifluoro-1-methylethoxy]-benzamide]", "values": [
      {"measurement": "effect of uridine on growth inhibition", "setting": "[1]; 08-387, with 100 mM uridine, all concentrations tested", "result": "entirely rescued"},
      {"measurement": "IC50", "setting": "[1]; 08-387, uridine rescue experiment, compound 1 alone, normoxia and hypoxia", "result": "1 to 10", "unit": "nM"},
      {"measurement": "IC50", "setting": "[1]; 72 h, 08-387, hypoxia", "result": 11.4, "unit": "nM"},
      {"measurement": "IC50", "setting": "[1]; 72 h, 08-387, normoxia", "result": 4.7, "unit": "nM"},
      {"measurement": "effect of uridine on growth inhibition", "setting": "[2]; 913, with 100 mM uridine, all concentrations tested", "result": "entirely rescued"},
      {"measurement": "IC50", "setting": "[2]; Homo sapiens, 913, uridine rescue experiment, compound 1 alone, normoxia and hypoxia", "result": "1 to 10", "unit": "nM"},
      {"measurement": "IC50", "setting": "[2]; Homo sapiens, 72 h, 913, hypoxia (1% oxygen), 72 hours", "result": 6.7, "unit": "nM"},
      {"measurement": "IC50", "setting": "[2]; Homo sapiens, 72 h, 913, normoxia (21% oxygen), 72 hours", "result": 15.3, "unit": "nM"},
      {"measurement": "percentage of cells in the S phase", "setting": "[3]; 10 nM", "result": 70, "unit": "%"},
      {"measurement": "percentage of cells in the S phase", "setting": "[3]; 100 nM", "result": 64, "unit": "%"},
      {"measurement": "cell cycle effects with uridine supplementation", "setting": "[3]; uridine supplementation", "result": "completely blocked"}
    ]}
  ]
}
